From ChEMBL document CHEMBL1201862, “PubChem BioAssay data set” (2004)
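Where inhibition never reached the appropriate level, the endpoint shown equals the highest concentration tested. Otherwise, values were interpolated linearly from a five-concentration, 48-hour dose response in 96-well plates. GI50 marks 50% less growth.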 Calls of active or inactive are those of the source. Cut-off read from the data, not from the text of the source: active = GI50 up to about 1.1 µM and inactive = higher.

Tests used:
Assay in all cases: DTP human tumour cell line panel, 48 h
MOLT-4 = system: MOLT-4
NCI-H522 = system: NCI-H522
HOP-92 = system: HOP-92
TK-10 = system: TK-10
786-0 = system: 786-0
HCT-15 = system: HCT-15
A498 = system: A498
NCI-H460 = system: NCI-H460
PC-3 = system: PC-3
K562 = system: K562
M14 = system: M14
NCI-H226 = system: NCI-H226
SF-295 = system: SF-295
LOX IMVI = system: LOX IMVI
SK-MEL-28 = system: SK-MEL-28
HT-29 = system: HT-29
UACC-62 = system: UACC-62
RXF 393 = system: RXF 393
NCI-H23 = system: NCI-H23
HCC 2998 = system: HCC 2998

| SMILES | GI50 (MOLT-4) | GI50 (NCI-H522) | GI50 (HOP-92) | GI50 (TK-10) | GI50 (786-0) | GI50 (HCT-15) | GI50 (A498) | GI50 (NCI-H460) | GI50 (PC-3) | GI50 (K562) | GI50 (M14) | GI50 (NCI-H226) | GI50 (SF-295) | GI50 (LOX IMVI) | GI50 (SK-MEL-28) | GI50 (HT-29) | GI50 (UACC-62) | GI50 (RXF 393) | GI50 (NCI-H23) | GI50 (HCC 2998) |
| --- | --- | --- | --- | --- | --- | --- | --- | --- | --- | --- | --- | --- | --- | --- | --- | --- | --- | --- | --- | --- |
| Cc1cc(/N=C/c2ccc(F)cc2)n(-c2ccccc2)n1 | 35.3 µM (inactive) | 39.1 µM (inactive) | 89.1 µM (inactive) | 57 µM (inactive) | > 100 µM (inactive) | 48.2 µM | 42.3 µM (inactive) | 41.5 µM (inactive) | > 100 µM (inactive) | 59.3 µM (inactive) | > 100 µM (inactive) | > 100 µM (inactive) | 57.5 µM (inactive) | > 100 µM (inactive) | > 100 µM (inactive) | 48.9 µM (inactive) | > 100 µM (inactive) | 47.9 µM (inactive) | 82.2 µM (inactive) | – |
| CC(=O)O[C@@H]1O[Si](C(C)(C)C)(C(C)(C)C)[C@H](C)[C@H]1C | 20.8 µM (inactive) | 56.6 µM (inactive) | – | > 100 µM (inactive) | 33.5 µM (inactive) | 29.9 µM | > 100 µM (inactive) | – | 33 µM (inactive) | 31.8 µM (inactive) | 38.6 µM (inactive) | > 100 µM (inactive) | 90.8 µM (inactive) | 25.8 µM (inactive) | > 100 µM (inactive) | 18.6 µM (inactive) | 83.6 µM (inactive) | – | > 100 µM (inactive) | 92.7 µM (inactive) |
| O=C(Nc1ccccc1C(=O)Nc1nccs1)c1ccccc1 | 3.44 µM (inactive) | 14.3 µM (inactive) | – | 25.6 µM (inactive) | 16.4 µM (inactive) | 4.37 µM | 8.51 µM (inactive) | 3.81 µM (inactive) | 2.45 µM (inactive) | 11.2 µM (inactive) | 19.7 µM (inactive) | 32.5 µM (inactive) | 25.8 µM (inactive) | 4.83 µM (inactive) | 20.7 µM (inactive) | 4.44 µM (inactive) | 25.2 µM (inactive) | – | 65.8 µM (inactive) | 13.5 µM (inactive) |
| COc1ccc(/C=C2\CCC(C)C3=C2N=c2s/c(=C/c4cccc(Br)c4)c(=O)n2C3c2ccc(OC)c(OC)c2)cc1OC (configuration not stated) | > 100 µM (inactive) | – | > 100 µM (inactive) | > 100 µM (inactive) | > 100 µM (inactive) | > 100 µM | > 100 µM (inactive) | – | > 100 µM (inactive) | > 100 µM (inactive) | > 100 µM (inactive) | – | – | > 100 µM (inactive) | > 100 µM (inactive) | > 100 µM (inactive) | > 100 µM (inactive) | > 100 µM (inactive) | – | – |
| CC(NC(=O)CNP(=O)(c1ccccc1)c1ccccc1)C(=O)NC(Cc1ccccc1)C(=O)OCc1ccccc1 (configuration not stated) | 20.5 µM (inactive) | 19.6 µM (inactive) | > 100 µM (inactive) | > 100 µM (inactive) | 22.2 µM (inactive) | > 100 µM | > 100 µM (inactive) | – | 60.7 µM (inactive) | > 10 µM (inactive) | 49.7 µM (inactive) | > 100 µM (inactive) | 19 µM (inactive) | 26.7 µM (inactive) | 23.8 µM (inactive) | 92.9 µM (inactive) | 36.3 µM (inactive) | 21 µM (inactive) | 37.8 µM (inactive) | – |
| CC1N[B@@-](C)(c2ccc(C(F)(F)F)cc2)OC1c1ccccc1 (some centres not stated) | 29.9 µM (inactive) | – | 20.4 µM (inactive) | > 100 µM (inactive) | > 100 µM (inactive) | 49.1 µM | 58.9 µM (inactive) | > 100 µM (inactive) | 53.3 µM (inactive) | 66.2 µM (inactive) | > 100 µM (inactive) | > 100 µM (inactive) | > 100 µM (inactive) | 98.2 µM (inactive) | > 100 µM (inactive) | 72.1 µM (inactive) | > 100 µM (inactive) | – | > 100 µM (inactive) | > 100 µM (inactive) |
| COc1cc2nc3n(c(=O)c2cc1OC)CCCCC3 | > 100 µM (inactive) | > 100 µM (inactive) | > 100 µM (inactive) | > 100 µM (inactive) | > 100 µM (inactive) | > 100 µM | > 100 µM (inactive) | > 100 µM (inactive) | > 100 µM (inactive) | > 100 µM (inactive) | > 100 µM (inactive) | > 100 µM (inactive) | > 100 µM (inactive) | > 100 µM (inactive) | > 100 µM (inactive) | > 100 µM (inactive) | > 100 µM (inactive) | > 100 µM (inactive) | > 100 µM (inactive) | – |
| CCOC(=O)c1nc2ccccc2nc1Oc1ccc(C#N)cc1 | > 100 µM (inactive) | – | 96.6 µM (inactive) | > 100 µM (inactive) | > 100 µM (inactive) | > 100 µM | > 100 µM (inactive) | > 100 µM (inactive) | > 100 µM (inactive) | > 100 µM (inactive) | > 100 µM (inactive) | > 100 µM (inactive) | > 100 µM (inactive) | > 100 µM (inactive) | > 100 µM (inactive) | > 100 µM (inactive) | > 100 µM (inactive) | > 100 µM (inactive) | – | – |
| CCCC(=O)Nc1ncnc2c1ncn2C1OC2COP(=O)(O)OC2C1OC(=O)CCC (configuration not stated) | > 100 µM (inactive) | > 100 µM (inactive) | > 1000 µM (inactive) | > 1000 µM (inactive) | > 100 µM (inactive) | > 100 µM | 31.9 µM (inactive) | > 100 µM (inactive) | > 100 µM (inactive) | > 100 µM (inactive) | > 100 µM (inactive) | > 100 µM (inactive) | > 100 µM (inactive) | > 100 µM (inactive) | > 100 µM (inactive) | > 100 µM (inactive) | > 100 µM (inactive) | – | > 100 µM (inactive) | > 100 µM (inactive) |
| CCCNc1c(Cl)cc(Cl)c2[nH]c3ccccc3c(=O)c12 | 32.5 µM (inactive) | 37.1 µM (inactive) | 3.42 µM (inactive) | 51.3 µM (inactive) | 30.2 µM (inactive) | 98.6 µM | 29.7 µM (inactive) | – | 37.1 µM (inactive) | 28.3 µM (inactive) | 55.7 µM (inactive) | 38.2 µM (inactive) | 34.8 µM (inactive) | 33.7 µM (inactive) | > 100 µM (inactive) | 22.5 µM (inactive) | 45.5 µM (inactive) | – | 27.7 µM (inactive) | 41.3 µM (inactive) |
| CC(C)N(c1cc2c(cc1F)c(=O)c(C(=O)O)cn2-c1ccc(N2CCN(C)CC2)cn1)C(C)C | > 100 µM (inactive) | – | > 100 µM (inactive) | > 100 µM (inactive) | > 100 µM (inactive) | > 100 µM | > 100 µM (inactive) | > 100 µM (inactive) | > 100 µM (inactive) | > 100 µM (inactive) | > 100 µM (inactive) | > 100 µM (inactive) | > 100 µM (inactive) | > 100 µM (inactive) | > 100 µM (inactive) | > 100 µM (inactive) | > 10 µM (inactive) | > 100 µM (inactive) | > 100 µM (inactive) | – |
| CCCCC/C=C\C=C\CCCCCCCCC(=O)OC | > 100 µM (inactive) | – | > 100 µM (inactive) | > 100 µM (inactive) | > 100 µM (inactive) | > 100 µM | > 100 µM (inactive) | > 100 µM (inactive) | > 100 µM (inactive) | > 100 µM (inactive) | > 100 µM (inactive) | > 100 µM (inactive) | > 100 µM (inactive) | 29.8 µM (inactive) | > 100 µM (inactive) | > 100 µM (inactive) | – | > 100 µM (inactive) | > 100 µM (inactive) | – |
